Where two headings read alike, the source gives them in different places. Values belong to the compound of their own block, whether it stands above or below them.
Assays:
[1] = target: T1, GST-cGB-PDE5 fusion protein (cGMP binding sites of human PDE5A) (Homo sapiens, UniProt O76074); assay: cGMP binding assay (3H-cGMP competition)
T1 construct: made in house; host or cells: E. coli BL21 (DE3)

[2] = system: PKG in SW480 colon cancer cells; assay: PKG assay of drug-treated cell lysates (GST-cGB-PDE5 solid phase substrate); type: cell-based, human; details: 48 hrs, exisulind 200, 400, 600 μM, E4021 0.1, 1, 10 μM, with and without added cGMP
Procedure: To test the effect of cGMP-specific PDE inhibition on neoplasia containing the APC mutation, SW480 colon cancer cells were employed. SW 480 is known to contain the APC mutation. About 5 million SW480 cells in RPMI 5% serum are added to each of 8 dishes:
2-10 cm dishes—30 μL DMSO vehicle control (without drug),
3-10 cm dishes—200 μM, 400 μM, 600 μM exisulind in DMSO, and
The dishes are incubated for 48 hrs at 37° C. in 5% CO2 incubator.
The liquid media are aspirated from the dishes (the cells will attach themselves to the dishes). The attached cells are washed in each dish with cold PBS, and 200 μL cell lysis buffer (i.e., 50 mM Tris-HCl, 1% NP-40, 150 mM NaCl, 1 mM EDTA, 1 mM Na3VO4, 1 mM NaF, 500 μM IBMX with proteinase inhibitors) is added to each dish. Immediately after the cell lysis buffer is added, the lysed cells are collected by scraping the cells off each dish. The cell lysate from each dish is transferred to a microfuge tube, and the microfuge tubes are incubated at 4° C. for 15 minutes while gently agitating the microfuge tubes to allow the cells to lyse completely. […]
For each control or drug cell lysate sample to be evaluated, the reaction is started by adding phosphorylation buffer containing 10 μCi ^32P-γ-ATP solution (200 μM ATP, 4.5 mM MgCl; 5 mM KH2PO4; 5 mM K2HPO4;) to each mixture. […]

[3] = system: JNK1 in SW480 colon cancer cells; assay: JNK1 immunoprecipitation in vitro kinase assay with GST-c-Jun(1-79); type: cell-based, human; details: for inhibition of Compound B-induced JNK1 activation: SW480 cells pre-treated 2 μM for 2 hours, then Compound B 1 or 10 μM for one hour; for JNK1 activation by cGMP modulators: SW480 cells, one hour, dbcGMP 500 μM, dbcAMP 500 μM, YC-1 50 μM, MY-5445 50 μM, dipyridamole 10 μM
Procedure: The cells were lysed, JNK1 immunoprecipitated with an anti-JNK1 antibody, and the immunoprecipitate (“IP”) assayed for in vitro kinase activity with GST-c-Jun(1-79) as the substrate. The experiments were repeated three times with similar results. Fold activation was measured using a Phosphor Imager.
FIG. 1B: SW480 cells were treated with Compound A (1 μM) for the indicated time periods and in vitro JNK1 kinase activity was determined as described above.
FIG. 2A SW480 cells were treated with either DMSO (−) or Compound A, 0.1 μM; dbcGMP, 500 μM; YC-1, 50 μM; MY-5445, 50 μM; dipyridamole, 10 μM or dbcAMP, 500 μM for one hour. The cells were lysed, JNK1 immunoprecipitated, and the IP assayed for in vitro kinase activity as described in FIG. 1A.
FIG. 2B SW480 cells were pre-treated with either DMSO, KT5720 (2 μM) or Rp-8-pCPT-cGMPS (2 μM) for 2 hours and then treated with Compound B (0, 1 or 10 μM) for one hour. The cells were lysed and assayed for JNK1 activation in the IP as described above.
These concentrations were chosen since they provided optimal induction of apoptosis. Endogenous JNK1 was immunoprecipitated with anti-JNK1 antibody and in vitro kinase assays were performed with GST-c-Jun(1-79) as the substrate. […]
However, the precise role of PKG in signal transduction pathways is not known. […] As a control, KT5720 was used as a protein kinase A (“PKA”)-specific inhibitor. SW480 cells were treated with either DMSO, KT5720 (2 μM) or Rp-8-pCPT-cGMPS (2 μM) for 2 hours and then treated with either DMSO or Compound B (1 or 10 μM) for one hour. Cell extracts were collected and assayed for JNK1 activation.

PARP in SW480 cells = assay: PARP cleavage by Western blot; type: cell-based, human; details: SW480 cells pre-incubated 2 μM for 2 hours, then Compound A 1 μM 2 days
Procedure: SW480 cells were pre-treated with either DMSO (−) or Rp-8-pCPT-cGMPS (2 μM) for 2 hours and then treated with either DMSO (−) or Compound A (1 μM). Both the floating and attached cells were collected after 2 days, and the cell lysates were assayed for PARP cleavage by Western blotting with anti-PARP antibody. Fold increase in PARP cleavage was measured by densitometry of the 85 kD fragment.
Finally, we investigated whether activation of the PKG pathway is required for the induction of apoptosis by SAANDs. SW480 cells were treated with either DMSO or the PKG inhibitor Rp-8-pCPT-cGMPS (2 μM) for 2 hours and then the cells were treated with either DMSO or Compound A (1 μM) for 2 days. Both the floating and attached cells were collected, and the cell lysates were assayed for poly (ADP-ribose) polymerase (PARP) cleavage by Western blotting with an anti-PARP antibody. PARP is a 116 kD nuclear enzyme that converts NAD to nicotinamide and protein-linked ADP-ribose polymers, which are important for DNA repair and genomic maintenance. In cells that are undergoing apoptosis the 116 kD PARP protein is cleaved by caspase-3 into 85 and 25 kD fragments, thus resulting in loss of normal PARP function. This inactivation of PARP apparently prevents depletion of cellular levels of NAD and ATP, which are thought to be required for later events in apoptosis.

native bovine PDE5 = native bovine PDE5 (Bos taurus, UniProt Q28156); details: read-out: Kd of cGMP binding; cited from earlier work
[4] = at high concentration (100 μM) against cGMP 2 μM

T1 sequence (O76074 46-539 limits assumed): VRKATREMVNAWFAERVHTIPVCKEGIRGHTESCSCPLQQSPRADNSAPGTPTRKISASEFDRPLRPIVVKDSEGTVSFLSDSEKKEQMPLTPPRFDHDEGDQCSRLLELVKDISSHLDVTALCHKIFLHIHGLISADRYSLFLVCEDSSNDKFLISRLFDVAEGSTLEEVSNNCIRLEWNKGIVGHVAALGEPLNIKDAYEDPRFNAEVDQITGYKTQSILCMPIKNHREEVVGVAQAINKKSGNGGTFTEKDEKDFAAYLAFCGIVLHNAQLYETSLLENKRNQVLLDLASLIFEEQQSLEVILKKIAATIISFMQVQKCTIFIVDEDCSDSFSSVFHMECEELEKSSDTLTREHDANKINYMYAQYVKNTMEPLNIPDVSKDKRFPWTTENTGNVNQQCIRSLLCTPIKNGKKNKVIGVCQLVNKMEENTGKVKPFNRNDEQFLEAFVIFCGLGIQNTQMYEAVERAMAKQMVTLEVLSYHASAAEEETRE

competition with cGMP for the cGMP binding sites of GST-cGB-PDE5 ([1]; 3H-cGMP 2 μM, 22° C., 1 hour): did not compete with cGMP in binding
Compound: CCCCOC1C2OP(=O)(O)OCC2OC1n1cnc2c(N)ncnc21 (stereo not drawn) [2′-O-butyl-cAMP]

competition with cGMP for the cGMP binding sites of GST-cGB-PDE5 ([1]; 3H-cGMP 2 μM, 22° C., 1 hour): did not compete with cGMP in binding
Compound: CCCCOC1C2OP(=O)(O)OCC2OC1n1cnc2c(=O)[nH]c(N)nc21 (stereo not drawn) [2′-O-butyl-cGMP]

competition with cGMP for the cGMP binding sites of GST-cGB-PDE5 [1, 4]: can partially compete with cGMP
Compound: Nc1nc2c(nc(Br)n2[C@@H]2O[C@@H]3COP(=O)(O)O[C@H]3[C@H]2O)c(=O)[nH]1 [Compound 8-bromo-cGMP, 8-bromo-cGMP]

Compound: O=C([O-])C1CCN(c2nc(NCc3ccc4c(c3)OCO4)c3cc(Cl)ccc3n2)CC1.[Na+] [Compound E4021]
PKG activity relative to control [2]: do not exhibit PKG activation relative to control | competition with cGMP for the cGMP binding sites of GST-cGB-PDE5 ([1]; 3H-cGMP 2 μM, 22° C., 1 hour): None of the PDE5 inhibitors showed any competition with cGMP

Compound: Nc1ncnc2c1ncn2[C@@H]1O[C@@H]2COP(=O)(O)O[C@H]2[C@H]1O [Cyclic AMP]
competition with cGMP for the cGMP binding sites of GST-cGB-PDE5 [1]: did not compete with cGMP in binding

competition with cGMP for the cGMP binding sites of GST-cGB-PDE5 [1, 4]: can partially compete with cGMP
Compound: O=c1[nH]cnc2c1ncn2[C@@H]1O[C@@H]2COP(=O)(O)O[C@H]2[C@H]1O [Cyclic IMP, cyclic IMP]

Compound: CCCCCCOC(=O)[C@]1(O)C[C@@H]2O[C@@]1(C)n1c3ccccc3c3c4c(c5c6ccccc6n2c5c31)C(=O)NC4 [KT5720]
inhibition of Compound B-induced JNK1 activation [3]: no inhibitory activity

Compound: Clc1cccc(Nc2nnc(-c3ccccc3)c3ccccc23)c1 [MY-5445, 1-(3-chloroanilino)-4-phenyphthalazine]
JNK1 activation by cGMP modulators [3]: also activated JNK1

Compound: Nc1nc2c(nc(Sc3ccc(Cl)cc3)n2[C@@H]2O[C@@H]3CO[P@@](=O)(S)O[C@H]3[C@H]2O)c(=O)[nH]1 [Rp-8-pCPT-cGMP, reference compound]
inhibition of Compound B-induced JNK1 activation [3]: strongly inhibited | inhibition of Compound A-induced PARP cleavage (PARP in SW480 cells): significantly inhibited

Compound: OCc1ccc(-c2nn(Cc3ccccc3)c3ccccc23)o1 [YC-1]
JNK1 activation by cGMP modulators [3]: also activated JNK1

competition with cGMP for the cGMP binding sites of GST-cGB-PDE5 ([1]; 3H-cGMP 2 μM, 22° C., 1 hour): did not compete with cGMP in binding
Compound: Nc1ccn([C@@H]2O[C@@H]3COP(=O)(O)O[C@H]3[C@H]2O)c(=O)n1 [cCMP, cyclic CMP]

Kd [1]: 1.6 ± 0.2 µM | competition with cGMP for the cGMP binding sites of GST-cGB-PDE5 ([1]; 3H-cGMP 2 μM, 22° C., 1 hour): specifically binds GST-cGB-PDE5 protein
Compound: Nc1nc2c(ncn2[C@@H]2O[C@@H]3COP(=O)(O)O[C@H]3[C@H]2O)c(=O)[nH]1 [cGMP, cyclic 3′,5′-guanosine monophosphate]
Kd (native bovine PDE5): 1.3 µM

competition with cGMP for the cGMP binding sites of GST-cGB-PDE5 ([1]; 3H-cGMP 2 μM, 22° C., 1 hour): did not compete with cGMP in binding
Compound: O=c1ccn([C@@H]2O[C@@H]3COP(=O)(O)O[C@H]3[C@H]2O)c(=O)[nH]1 [cUMP, cyclic UMP]

Compound: CCCC(=O)Nc1ncnc2c1ncn2[C@@H]1O[C@@H]2COP(=O)(O)O[C@H]2[C@H]1OC(=O)CCC [dbcAMP, dibutyryladenosine 3′:5′-cyclic monophosphate]
JNK1 activation by cGMP modulators [3]: inactive

Compound: CCCC(=O)Nc1nc2c(ncn2C2OC3COP(=O)([O-])OC3C2OC(=O)CCC)c(=O)[nH]1.[Na+] (stereo not drawn) [dbcGMP, Dibutyrylguanosine 3′:5′-cyclic monophosphate]
JNK1 activation by cGMP modulators [3]: activated JNK1

Compound: OCCN(CCO)c1nc(N2CCCCC2)c2nc(N(CCO)CCO)nc(N3CCCCC3)c2n1 [dipyridamole]
JNK1 activation by cGMP modulators [3]: also activated JNK1

Compound: CCCOc1ccccc1-c1nc2nn[nH]c2c(=O)[nH]1 [zaprinast]
competition with cGMP for the cGMP binding sites of GST-cGB-PDE5 ([1]; 3H-cGMP 2 μM, 22° C., 1 hour): None of the PDE5 inhibitors showed any competition with cGMP

Source: US6569638B1, “Method for screening compounds for the treatment of neoplasia” (Cell Pathways, Inc, priority 2000, dated 2003)
